Literature values, collected in patent US6331653A, “Process for producing 3,4-dihydroxy-3-cyclobutene-1,2-dione” (priority 1997, dated 2001).

Settings: in an aqueous solution at 25° C.; amine compound
In the case of `c1ccc2ncccc2c1` [Quinoline], the pKa value is given as 4.8. For `CN1CCCC1` [N-methylpyrrolidine], the pKa value is listed as 10.5. For `CN1CCCCC1` [N-methylpiperidine], the pKa value is given as 10.1. For `Cc1ccccn1` [α-picoline], the pKa value is given as 5.9.

Same assay, conditions: water
In the case of `CCCCN(CCCC)CCCC` [tributylamine], the pKa value is given as 9.9. In the case of `CCN(CC)c1ccccc1` [N,N-diethylaniline], the pKa value is given as 6.6. In the case of `CN(C)c1ccccc1` [N,N-dimethylaniline], the pKa value is listed as 5.2.
